± gives the standard deviation of the averaged measurements.
Assays:
Assay in all cases: level (log10 ratio to DMSO vehicle control); higher = higher biomarker level / cell amount than vehicle control
Details in all cases: in DMSO
[1] = compound: O=S(=O)(O)C(F)(F)C(F)(F)C(F)(F)C(F)(F)C(F)(F)C(F)(F)C(F)(F)C(F)(F)F [Perfluorooctanesulfonic acid]
Description: (§1)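 BioMAP Diversity Plus panel of 12 human primary cell co-culture systems (3C, 4H, LPS, SAg, BT, BF4T, BE3C, CASM3C, HDF3CGF, KF3CT, MyoF, Mphg). Compounds were added 1 h before stimulation and left for 24 h (MyoF 48 h; BT 72 h for soluble read-outs or 6 d for IgG). Biomarkers were read by ELISA, cytotoxicity by SRB, PBMC viability and proliferation by Alamar Blue. Each well value was divided by the mean of 8 DMSO control wells on the same plate and log10 transformed; duplicate blinded samples were tested at 4 concentrations.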

[2] = compound: O=C(O)C(F)(F)C(F)(F)C(F)(F)C(=O)O [Hexafluoroglutaric acid]
Description: as §1

[3] = compound: O=C(O)C(F)(F)C(F)(F)C(F)(F)C(F)(F)C(F)(F)C(F)(F)C(F)(F)C(F)(F)C(F)(F)C(F)(F)C(F)(F)C(F)(F)F [Perfluorotridecanoic acid]
Description: as §1

[4] = compound: O=C(O)C(F)(F)OC(F)(F)C(F)(F)OC(F)(F)C(F)(F)C(F)(F)C(F)(F)F [Perfluoro-3,6-dioxadecanoic acid]
Description: as §1

[5] = compound: Cn1cnc([N+](=O)[O-])c1Sc1ncnc2[nH]cnc12 [Azathioprine]
Description: as §1

[6] = compound: CNS(=O)(=O)C(F)(F)C(F)(F)C(F)(F)C(F)(F)C(F)(F)C(F)(F)C(F)(F)C(F)(F)F [N-Methylperfluorooctanesulfonamide]
Description: as §1

Test System	level (log10) ([1]; 6700 nM)	level (log10) ([1]; 20000 nM)	level (log10) ([1]; 60000 nM)	level (log10) ([2]; 6700 nM)	level (log10) ([2]; 20000 nM)	level (log10) ([2]; 60000 nM)	level (log10) ([3]; 1500 nM)	level (log10) ([3]; 4400 nM)	level (log10) ([3]; 13000 nM)	level (log10) ([3]; 40000 nM)	level (log10) ([4]; 6700 nM)	level (log10) ([4]; 20000 nM)	level (log10) ([4]; 60000 nM)	level (log10) ([5]; 1400 nM)	level (log10) ([5]; 4200 nM)	level (log10) ([5]; 13000 nM)	level (log10) ([5]; 38000 nM)	level (log10) ([6]; 6700 nM)	level (log10) ([6]; 20000 nM)	level (log10) ([6]; 60000 nM)
MyoF:PAI-I	0.003 ± 0.017	-0.0105 ± 0.0064	-0.0055 ± 0.0092	-0.0025 ± 0.021	-0.0035 ± 0.015	0.003	0.013 ± 0.013	-0.002	-0.0035 ± 0.00071	0.012 ± 0.0085	0.001 ± 0.0014	-0.0005 ± 0.0092	-0.015 ± 0.0057	-0.004 ± 0.0085	-0.0025 ± 0.0064	-0.0015 ± 0.005	0 ± 0.0085	0.0005 ± 0.022	-0.0145 ± 0.012	0.0255 ± 0.0092
MyoF:SRB	-0.0045 ± 0.00071	-0.0155 ± 0.00071	-0.0185 ± 0.019	0.0015 ± 0.00071	-0.002 ± 0.0085	-0.0045 ± 0.0092	0.0015 ± 0.0064	0.002 ± 0.0014	0.0005 ± 0.0021	0.002 ± 0.0042	0	-0.002	-0.0515 ± 0.0092	-0.0055 ± 0.0092	0.0015 ± 0.0021	0.0005 ± 0.0035	-0.015 ± 0.0057	-0.005 ± 0.0099	-0.0085 ± 0.012	-0.0065 ± 0.022
MyoF:TIMP-1	-0.002 ± 0.03	0.003 ± 0.0071	0.102 ± 0.0021	0.001 ± 0.014	-0.0545 ± 0.053	-0.0205 ± 0.0035	0.004 ± 0.0071	0.001 ± 0.011	0.025 ± 0.0028	0.0325 ± 0.0064	0.044 ± 0.03	0.174 ± 0.031	0.164 ± 0.0014	-0.0225 ± 0.04	-0.056 ± 0.057	0.013 ± 0.068	0.016 ± 0.071	-0.0435 ± 0.00071	-0.049 ± 0.034	-0.0415 ± 0.005
MyoF:alpha-SM Actin	-0.0015 ± 0.023	0.004 ± 0.035	0.0105 ± 0.005	-0.008 ± 0.044	-0.0065 ± 0.029	0.033 ± 0.017	0.038 ± 0.067	0.041 ± 0.11	0.023 ± 0.086	0.0055 ± 0.09	-0.0155 ± 0.039	-0.0235 ± 0.018	-0.05 ± 0.014	0.037 ± 0.095	0.039 ± 0.071	0.002 ± 0.078	-0.0365 ± 0.1	-0.021 ± 0.068	-0.008 ± 0.042	0.024 ± 0.059
MyoF:bFGF	-0.004	-0.0185 ± 0.028	-0.0125 ± 0.018	0.01 ± 0.014	0.0105 ± 0.013	0.017 ± 0.0014	0.005 ± 0.04	0.017 ± 0.028	0.0045 ± 0.04	0.015 ± 0.0085	0.013 ± 0.02	0.003 ± 0.0057	0.02 ± 0.011	0.001 ± 0.016	0.003 ± 0.0071	-0.015 ± 0.016	0.01 ± 0.0071	0 ± 0.014	-0.0085 ± 0.033	0.005 ± 0.033
lMphg:CCL2/MCP-1	-0.0055 ± 0.0092	0.0015 ± 0.0064	-0.0075 ± 0.04	-0.046 ± 0.052	-0.0305 ± 0.037	-0.0235 ± 0.011	-0.0115 ± 0.018	0.001 ± 0.017	-0.004 ± 0.023	0.0275 ± 0.028	-0.024 ± 0.037	-0.0225 ± 0.023	-0.0435 ± 0.0092	0.0055 ± 0.025	-0.0005 ± 0.0092	-0.0315 ± 0.0078	-0.0755 ± 0.011	-0.034 ± 0.0099	-0.061 ± 0.033	-0.0465 ± 0.04
lMphg:CCL3/MIP-1alpha	-0.0225 ± 0.011	-0.007	-0.0035 ± 0.0078	-0.0025 ± 0.0078	0.0125 ± 0.015	-0.024 ± 0.052	0.0065 ± 0.023	-0.0135 ± 0.013	0.004 ± 0.021	0.0345 ± 0.032	-0.022 ± 0.064	-0.0215 ± 0.049	-0.0545 ± 0.054	-0.0005 ± 0.00071	-0.0235 ± 0.021	-0.0225 ± 0.03	-0.0975 ± 0.029	-0.023 ± 0.0014	0.0105 ± 0.029	0.034 ± 0.033

— the supplement of paper PMC10331698
